{"source": "patent US4459296A", "about": "“Piperazines and homopiperazines, N-substituted by an aromatic heterocyclic group, and their use in therapeutics” (Delalande S.A., priority 1982, dated 1984)", "key": {"[1]": {"assay": "Acute toxicity assessed intravenously in mice (method of Miller and Tainter)", "details": "mouse, in vivo; for LD50: read-out: Acute toxicity LD 50"}, "[2]": {"tested_on": "S.H.R. rats (genetically hypertensive)", "assay": "Antihypertensive activity by oral administration to S.H.R. rats (genetically hypertensive)", "assay_type": "in vivo", "method": "The arterial blood pressure was recorded on an APELAB-BP recorder 8002-and an electromechanical counter provided a direct reading of the heartbeat rate. The measurements were taken at 0 hour, 2 hours, 4 hours, 6 hours and 24 hours after administration of the compounds tested.\nTo illustrate the invention, the results obtained with some of the compounds of the invention are shown in Table II below in which the symbols AHY, ΔPA and ΔFC have the following meanings:\nAHY=% of rats whose arterial blood pressure drops by a value greater than or equal to 20% of the initial value or is brought down to a value less than 150 mmHg,\nΔPA=% variation of the arterial blood pressure in all the animals tested with respect to the initial blood pressure,\nΔFC=% variation of the heart-beat rate of all the animals tested with respect to the initial rate."}, "[3]": {"details": "iv, 200 mg/kg, i.v., read-out: Acute toxicity (mice), % at 200 mg/kg i.v. (printed \"at 200 (0%)\")"}, "[4]": {"details": "po, 1000 mg/kg, p.o., read-out: Acute toxicity (mice), % at 1000 (p.o.)"}, "[5]": {"details": "dose 50, 4 hours after administration"}, "[6]": {"details": "dose 50, 6 hours after administration"}, "[7]": {"details": "dose 50, 24 hours after administration"}}, "note": "Where two headings read alike, the source gives them in different places.", "data": [{"compound": "c1cc(N2CCNCC2)c2nc[nH]c2c1", "note": "[Code No. 1, (piperazino-1)-4(7) benzimidazole, tribromhydrate]", "values": [{"measurement": "LD50", "setting": "[1]; iv", "result": 125, "unit": "mg/kg"}]}, {"compound": "CC(C)C(=O)N1CCN(c2cccc3[nH]cnc23)CC1", "note": "[Code No. 3]", "values": [{"measurement": "mortality", "setting": "[1]; [3]", "result": 0, "unit": "%"}]}, {"compound": "O=C(c1cccs1)N1CCN(c2cccc3[nH]cnc23)CC1", "note": "[Code No. 7]", "values": [{"measurement": "mortality", "setting": "[1]; [3]", "result": 0, "unit": "%"}]}, {"compound": "C=C(C)COC(=O)N1CCN(c2cccc3[nH]cnc23)CC1", "note": "[Code No. 17]", "values": [{"measurement": "mortality", "setting": "[1]; [3]", "result": 0, "unit": "%"}]}, {"compound": "CSc1nnc(C(=O)N2CCN(c3cccc4[nH]cnc34)CC2)o1", "note": "[compound 12]", "values": [{"measurement": "mortality", "setting": "[1]; [4]", "result": 0, "unit": "%"}]}, {"compound": "CCOC(=O)N1CCN(c2cccc3[nH]cnc23)CC1", "note": "[compound 13]", "values": [{"measurement": "LD50", "setting": "[1]; iv", "result": 160, "unit": "mg/kg"}]}, {"compound": "CC(C)COC(=O)N1CCN(c2cccc3[nH]cnc23)CC1", "note": "[compound 21]", "values": [{"measurement": "LD50", "setting": "[1]; iv", "result": 195, "unit": "mg/kg"}]}, {"compound": "c1ccc(SN2CCN(c3cccc4[nH]cnc34)CC2)cc1", "note": "[compound 24]", "values": [{"measurement": "mortality", "setting": "[1]; [4]", "result": 0, "unit": "%"}]}, {"compound": "CCOC(=O)N1CCN(c2ncnc3nc[nH]c23)CC1", "note": "[compound 25]", "values": [{"measurement": "mortality", "setting": "[1]; [3]", "result": 0, "unit": "%"}]}, {"compound": "CCOC(=O)N1CCN(c2cccc3[nH]c(C)nc23)CC1", "note": "[compound 26]", "values": [{"measurement": "LD50", "setting": "[1]; iv", "result": 200, "unit": "mg/kg"}]}, {"compound": "CCOC(=O)C1CCN(c2cccc3[nH]cnc23)CC1", "note": "[compound 30]", "values": [{"measurement": "LD50", "setting": "[1]; iv", "result": 185, "unit": "mg/kg"}]}, {"compound": "c1cc(N2CCNCC2)c2nn[nH]c2c1", "note": "[compound 39]", "values": [{"measurement": "LD50", "setting": "[1]; iv", "result": 96, "unit": "mg/kg"}]}, {"compound": "c1cc(N2CCNCC2)c2cc[nH]c2c1", "note": "[compound 41]", "values": [{"measurement": "LD50", "setting": "[1]; iv", "result": 35, "unit": "mg/kg"}]}, {"compound": "c1cc(N2CCNCC2)c2[nH]ccc2c1", "note": "[compound 42]", "values": [{"measurement": "LD50", "setting": "[1]; iv", "result": 70, "unit": "mg/kg"}]}, {"compound": "(benzyloxycarbonyl-4 piperazino-1)-4 indole [Code No. 40]", "values": [{"measurement": "AHY (% of rats whose arterial blood pressure drops by ≥20% of initial value or to <150 mmHg)", "setting": "[2]; [5]", "result": 86, "unit": "%"}, {"measurement": "ΔFC (% variation of the heart-beat rate vs initial)", "setting": "[2]; [5]", "result": -11, "unit": "%"}, {"measurement": "ΔPA (% variation of the arterial blood pressure vs initial)", "setting": "[2]; [5]", "result": -23, "unit": "%"}, {"measurement": "AHY (% of rats whose arterial blood pressure drops by ≥20% of initial value or to <150 mmHg)", "setting": "[2]; [6]", "result": 86, "unit": "%"}, {"measurement": "ΔFC (% variation of the heart-beat rate vs initial)", "setting": "[2]; [6]", "result": -8, "unit": "%"}, {"measurement": "ΔPA (% variation of the arterial blood pressure vs initial)", "setting": "[2]; [6]", "result": -23, "unit": "%"}, {"measurement": "AHY (% of rats whose arterial blood pressure drops by ≥20% of initial value or to <150 mmHg)", "setting": "[2]; [7]", "result": 0, "unit": "%"}, {"measurement": "ΔFC (% variation of the heart-beat rate vs initial)", "setting": "[2]; [7]", "result": -9, "unit": "%"}, {"measurement": "ΔPA (% variation of the arterial blood pressure vs initial)", "setting": "[2]; [7]", "result": -2, "unit": "%"}]}, {"compound": "(carbethoxy-4 piperazino-1)-4(7) benzimidazole, maleate [Code No. 13]", "values": [{"measurement": "AHY (% of rats whose arterial blood pressure drops by ≥20% of initial value or to <150 mmHg)", "setting": "[2]; [6]", "result": 71, "unit": "%"}, {"measurement": "ΔFC (% variation of the heart-beat rate vs initial)", "setting": "[2]; [6]", "result": 0, "unit": "%"}, {"measurement": "ΔPA (% variation of the arterial blood pressure vs initial)", "setting": "[2]; [6]", "result": -19, "unit": "%"}, {"measurement": "AHY (% of rats whose arterial blood pressure drops by ≥20% of initial value or to <150 mmHg)", "setting": "[2]; [7]", "result": 28, "unit": "%"}, {"measurement": "ΔFC (% variation of the heart-beat rate vs initial)", "setting": "[2]; [7]", "result": -7, "unit": "%"}, {"measurement": "ΔPA (% variation of the arterial blood pressure vs initial)", "setting": "[2]; [7]", "result": -9, "unit": "%"}]}, {"compound": "(carbethoxy-4 piperazino-1)-6 purine [Code No. 25]", "values": [{"measurement": "AHY (% of rats whose arterial blood pressure drops by ≥20% of initial value or to <150 mmHg)", "setting": "[2]; [5]", "result": 14, "unit": "%"}, {"measurement": "ΔFC (% variation of the heart-beat rate vs initial)", "setting": "[2]; [5]", "result": -5, "unit": "%"}, {"measurement": "ΔPA (% variation of the arterial blood pressure vs initial)", "setting": "[2]; [5]", "result": -8, "unit": "%"}, {"measurement": "AHY (% of rats whose arterial blood pressure drops by ≥20% of initial value or to <150 mmHg)", "setting": "[2]; [6]", "result": 57, "unit": "%"}, {"measurement": "ΔFC (% variation of the heart-beat rate vs initial)", "setting": "[2]; [6]", "result": "+1%"}, {"measurement": "ΔPA (% variation of the arterial blood pressure vs initial)", "setting": "[2]; [6]", "result": -14, "unit": "%"}, {"measurement": "AHY (% of rats whose arterial blood pressure drops by ≥20% of initial value or to <150 mmHg)", "setting": "[2]; [7]", "result": 43, "unit": "%"}, {"measurement": "ΔFC (% variation of the heart-beat rate vs initial)", "setting": "[2]; [7]", "result": -4, "unit": "%"}, {"measurement": "ΔPA (% variation of the arterial blood pressure vs initial)", "setting": "[2]; [7]", "result": -9, "unit": "%"}]}, {"compound": "(piperazino-4 (7) benzotriazole, dihydrochloride [Code No. 39]", "values": [{"measurement": "AHY (% of rats whose arterial blood pressure drops by ≥20% of initial value or to <150 mmHg)", "setting": "[2]; [5]", "result": 33, "unit": "%"}, {"measurement": "ΔPA (% variation of the arterial blood pressure vs initial)", "setting": "[2]; [5]", "result": -15, "unit": "%"}, {"measurement": "AHY (% of rats whose arterial blood pressure drops by ≥20% of initial value or to <150 mmHg)", "setting": "[2]; [6]", "result": 67, "unit": "%"}, {"measurement": "ΔFC (% variation of the heart-beat rate vs initial)", "setting": "[2]; [6]", "result": "+3%"}, {"measurement": "ΔPA (% variation of the arterial blood pressure vs initial)", "setting": "[2]; [6]", "result": -21, "unit": "%"}, {"measurement": "ΔFC (% variation of the heart-beat rate vs initial)", "setting": "[2]; [7]", "result": 0, "unit": "%"}]}]}
